Reference: PubChem BioAssay AID256 (DTP/NCI, 2004)
“And” between values parts separate entries of the source, which are not always exact repeats. Equal values may be shown once. Inconclusive results and toxic doses are left out.

Tested on: CD2F1 mice, L1210 leukemia ip, survival T/C
Assay: NCI In Vivo Anticancer Drug Screen. Data for tumor model L1210 Leukemia (intraperitoneal) in CD2F1 (CDF1) mice
Conditions: higher = longer survival
Outline: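 Each value reflects a quotient of treated over vehicle control outcomes in mice with a transplanted tumor.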

In the case of `NCCCN=c1ccc2c3c1c(O)c1c(O)ccc(=O)c1c3[nH]n2CCNCCO`, the T/C (endpoint: median survival time, dose: 0.28 mg/kg/injection, schedule: Q03HX008 (ip), vehicle: saline) is reported as 162 % of control, the T/C (endpoint: median survival time, dose: 0.38 mg/kg/injection, schedule: Q03HX024 (ip), vehicle: saline) is reported as 174 % of control and the T/C (endpoint: median survival time, dose: 0.45 mg/kg/injection, schedule: Q01DX005 (ip), vehicle: saline) is reported as 174 % of control. The T/C (endpoint: median survival time, dose: 0.5 mg/kg/injection, schedule: Q01DX009 (ip), vehicle: saline) was 241 % of control, the T/C (endpoint: median survival time, dose: 0.56 mg/kg/injection, schedule: Q03HX008 (ip), vehicle: saline) was 174 % of control and the T/C (endpoint: median survival time, dose: 0.75 mg/kg/injection, schedule: Q03HX024 (ip), vehicle: saline) was 329 % of control. The T/C (endpoint: median survival time, dose: 0.75 mg/kg/injection, schedule: Q04DX003 (ip), vehicle: saline) was 231 % of control, the T/C (endpoint: median survival time, dose: 0.9 mg/kg/injection, schedule: Q01DX005 (ip), vehicle: saline) was 198 % of control and the T/C (endpoint: median survival time, dose: 0.9 mg/kg/injection, schedule: Q01DX005 (iv), vehicle: saline) was 114 % of control. The T/C (endpoint: median survival time, dose: 1.0 mg/kg/injection, schedule: Q01DX009 (ip), vehicle: saline) was 217 % of control, the T/C (endpoint: median survival time, dose: 1.13 mg/kg/injection, schedule: Q03HX008 (ip), vehicle: saline) was 731 % of control and the T/C (endpoint: median survival time, dose: 1.5 mg/kg/injection, schedule: Q03HX024 (ip), vehicle: saline) was 731 % of control. The T/C (endpoint: median survival time, dose: 1.5 mg/kg/injection, schedule: Q04DX003 (ip), vehicle: saline) was 186 % of control, the T/C (endpoint: median survival time, dose: 1.8 mg/kg/injection, schedule: Q01DX005 (ip), vehicle: saline) was 219 % of control and the T/C (endpoint: median survival time, dose: 2.0 mg/kg/injection, schedule: Q01DX009 (ip), vehicle: saline) was 186 % of control. The T/C (endpoint: median survival time, dose: 2.0 mg/kg/injection, schedule: Q01DX009 (ip), vehicle: water) was 170 % of control and 365 % of control, the T/C (endpoint: median survival time, dose: 2.2 mg/kg/injection, schedule: Q01DX001 (iv), vehicle: water) was 103 % of control and 111 % of control and the T/C (endpoint: median survival time, dose: 2.25 mg/kg/injection, schedule: Q01DX001 (iv), vehicle: saline) was 117 % of control. The T/C (endpoint: median survival time, dose: 2.25 mg/kg/injection, schedule: Q03HX008 (ip), vehicle: saline) was 280 % of control, the T/C (endpoint: median survival time, dose: 3.0 mg/kg/injection, schedule: Q03HX024 (ip), vehicle: saline) was 731 % of control and the T/C (endpoint: median survival time, dose: 3.0 mg/kg/injection, schedule: Q04DX003 (ip), vehicle: saline) was 207 % of control. The T/C (endpoint: median survival time, dose: 3.6 mg/kg/injection, schedule: Q01DX005 (ip), vehicle: saline) was 426 % of control, the T/C (endpoint: median survival time, dose: 3.6 mg/kg/injection, schedule: Q01DX005 (iv), vehicle: saline) was 158 % of control and the T/C (endpoint: median survival time, dose: 4.0 mg/kg/injection, schedule: Q01DX009 (ip), vehicle: saline) was 219 % of control. For the same molecule, the T/C (endpoint: median survival time, dose: 4.0 mg/kg/injection, schedule: Q01DX009 (ip), vehicle: water) was 183 % of control and 192 % of control and 292 % of control, the T/C (endpoint: median survival time, dose: 4.5 mg/kg/injection, schedule: Q01DX001 (ip), vehicle: saline) was 207 % of control and the T/C (endpoint: median survival time, dose: 4.5 mg/kg/injection, schedule: Q01DX001 (ip), vehicle: water) was 164 % of control. The T/C (endpoint: median survival time, dose: 4.5 mg/kg/injection, schedule: Q01DX001 (iv), vehicle: saline) was 123 % of control, the T/C (endpoint: median survival time, dose: 4.5 mg/kg/injection, schedule: Q01DX001 (iv), vehicle: water) was 108 % of control and 112 % of control and the T/C (endpoint: median survival time, dose: 4.5 mg/kg/injection, schedule: Q03HX008 (ip), vehicle: saline) was 731 % of control. For the same molecule, the T/C (endpoint: median survival time, dose: 6.0 mg/kg/injection, schedule: Q03HX024 (ip), vehicle: saline) was 731 % of control, the T/C (endpoint: median survival time, dose: 6.0 mg/kg/injection, schedule: Q04DX003 (ip), vehicle: saline) was 243 % of control and the T/C (endpoint: median survival time, dose: 7.2 mg/kg/injection, schedule: Q01DX005 (ip), vehicle: saline) was 731 % of control. The T/C (endpoint: median survival time, dose: 7.2 mg/kg/injection, schedule: Q01DX005 (iv), vehicle: saline) was 187 % of control, the T/C (endpoint: median survival time, dose: 8.0 mg/kg/injection, schedule: Q01DX009 (ip), vehicle: saline) was 329 % of control and the T/C (endpoint: median survival time, dose: 8.0 mg/kg/injection, schedule: Q01DX009 (ip), vehicle: water) was 213 % of control and 268 % of control and 333 % of control. The T/C (endpoint: median survival time, dose: 8.0 mg/kg/injection, schedule: Q01DX009 (oral), vehicle: saline) was 104 % of control, the T/C (endpoint: median survival time, dose: 9.0 mg/kg/injection, schedule: Q01DX001 (ip), vehicle: saline) was 231 % of control and the T/C (endpoint: median survival time, dose: 9.0 mg/kg/injection, schedule: Q01DX001 (ip), vehicle: water) was 158 % of control and 183 % of control. The T/C (endpoint: median survival time, dose: 9.0 mg/kg/injection, schedule: Q03HX008 (ip), vehicle: saline) was 731 % of control, the T/C (endpoint: median survival time, dose: 12.0 mg/kg/injection, schedule: Q03HX024 (ip), vehicle: saline) was 107 % of control and the T/C (endpoint: median survival time, dose: 12.0 mg/kg/injection, schedule: Q04DX003 (ip), vehicle: saline) was 731 % of control. For the same molecule, the T/C (endpoint: median survival time, dose: 14.4 mg/kg/injection, schedule: Q01DX005 (ip), vehicle: saline) was 731 % of control, the T/C (endpoint: median survival time, dose: 16.0 mg/kg/injection, schedule: Q01DX009 (ip), vehicle: saline) was 280 % of control and the T/C (endpoint: median survival time, dose: 16.0 mg/kg/injection, schedule: Q01DX009 (ip), vehicle: water) was 196 % of control and 337 % of control and 365 % of control. For the same molecule, the T/C (endpoint: median survival time, dose: 16.0 mg/kg/injection, schedule: Q01DX009 (oral), vehicle: saline) was 101 % of control, the T/C (endpoint: median survival time, dose: 18.0 mg/kg/injection, schedule: Q01DX001 (ip), vehicle: saline) was 268 % of control and the T/C (endpoint: median survival time, dose: 18.0 mg/kg/injection, schedule: Q01DX001 (ip), vehicle: water) was 216 % of control and 666 % of control. For the same molecule, the T/C (endpoint: median survival time, dose: 18.0 mg/kg/injection, schedule: Q01DX001 (iv), vehicle: saline) was 162 % of control, the T/C (endpoint: median survival time, dose: 18.0 mg/kg/injection, schedule: Q03HX008 (ip), vehicle: saline) was 365 % of control and the T/C (endpoint: median survival time, dose: 24.0 mg/kg/injection, schedule: Q04DX003 (ip), vehicle: saline) was 731 % of control. The T/C (endpoint: median survival time, dose: 28.8 mg/kg/injection, schedule: Q01DX005 (ip), vehicle: saline) was 731 % of control, the T/C (endpoint: median survival time, dose: 28.8 mg/kg/injection, schedule: Q01DX005 (iv), vehicle: saline) was 104 % of control and the T/C (endpoint: median survival time, dose: 32.0 mg/kg/injection, schedule: Q01DX009 (ip), vehicle: saline) was 113 % of control. For the same molecule, the T/C (endpoint: median survival time, dose: 32.0 mg/kg/injection, schedule: Q01DX009 (ip), vehicle: water) was 114 % of control and 119 % of control and 88 % of control, the T/C (endpoint: median survival time, dose: 32.0 mg/kg/injection, schedule: Q01DX009 (oral), vehicle: saline) was 107 % of control and the T/C (endpoint: median survival time, dose: 36.0 mg/kg/injection, schedule: Q01DX001 (ip), vehicle: saline) was 731 % of control. The T/C (endpoint: median survival time, dose: 36.0 mg/kg/injection, schedule: Q01DX001 (ip), vehicle: water) was 208 % of control and 466 % of control, the T/C (endpoint: median survival time, dose: 36.0 mg/kg/injection, schedule: Q01DX001 (iv), vehicle: saline) was 192 % of control and the T/C (endpoint: median survival time, dose: 36.0 mg/kg/injection, schedule: Q01DX001 (iv), vehicle: water) was 152 % of control. For the same molecule, the T/C (endpoint: median survival time, dose: 48.0 mg/kg/injection, schedule: Q04DX003 (ip), vehicle: saline) was 731 % of control, the T/C (endpoint: median survival time, dose: 64.0 mg/kg/injection, schedule: Q01DX009 (ip), vehicle: saline) was 90 % of control and the T/C (endpoint: median survival time, dose: 64.0 mg/kg/injection, schedule: Q01DX009 (oral), vehicle: saline) was 101 % of control. For the same molecule, the T/C (endpoint: median survival time, dose: 72.0 mg/kg/injection, schedule: Q01DX001 (ip), vehicle: saline) was 731 % of control, the T/C (endpoint: median survival time, dose: 72.0 mg/kg/injection, schedule: Q01DX001 (ip), vehicle: water) was 666 % of control and the T/C (endpoint: median survival time, dose: 96.0 mg/kg/injection, schedule: Q04DX003 (ip), vehicle: saline) was 219 % of control. For the same molecule, the T/C (endpoint: median survival time, dose: 128.0 mg/kg/injection, schedule: Q01DX009 (oral), vehicle: saline) was 102 % of control, the T/C (endpoint: median survival time, dose: 144.0 mg/kg/injection, schedule: Q01DX001 (ip), vehicle: saline) was 731 % of control and the T/C (endpoint: median survival time, dose: 144.0 mg/kg/injection, schedule: Q01DX001 (ip), vehicle: water) was 666 % of control.

With `Cc1cc(C)[nH]c(=O)n1` the T/C (endpoint: mean survival time, dose: 100.0 mg/kg/injection, schedule: Q04DX003 (ip), vehicle: saline) was 94 % of control, the T/C (endpoint: mean survival time, dose: 200.0 mg/kg/injection, schedule: Q04DX003 (ip), vehicle: saline) was 102 % of control and the T/C (endpoint: mean survival time, dose: 400.0 mg/kg/injection, schedule: Q04DX003 (ip), vehicle: saline) was 94 % of control.

For `O=C(CI)NCc1cn(C2CC(O)C(CO)O2)c(=O)[nH]c1=O` (stereo not drawn), the T/C (endpoint: mean survival time, dose: 4.0 mg/kg/injection, schedule: Q01DX005 (ip), vehicle: water) was 106 % of control, the T/C (endpoint: mean survival time, dose: 8.0 mg/kg/injection, schedule: Q01DX005 (ip), vehicle: water) was 114 % of control and the T/C (endpoint: mean survival time, dose: 16.0 mg/kg/injection, schedule: Q01DX005 (ip), vehicle: water) was 106 % of control. For the same molecule, the T/C (endpoint: mean survival time, dose: 32.0 mg/kg/injection, schedule: Q01DX005 (ip), vehicle: water) was 111 % of control and the T/C (endpoint: mean survival time, dose: 64.0 mg/kg/injection, schedule: Q01DX005 (ip), vehicle: water) was 114 % of control.

`CCOC(=O)CN1CCC2CC1c1c([nH]c3ccccc13)C2c1cc2c(cc1OC)N(C)C1C(O)(C(=O)OC)C(OC(C)=O)C3(CC)C=CCN4CCC21C43` (stereo not drawn) was tested, and the T/C (endpoint: mean survival time, dose: 0.06 mg/kg/injection, schedule: Q01DX009 (ip), vehicle: other) was 87 % of control, the T/C (endpoint: mean survival time, dose: 0.13 mg/kg/injection, schedule: Q01DX009 (ip), vehicle: other) was 97 % of control and the T/C (endpoint: mean survival time, dose: 0.25 mg/kg/injection, schedule: Q01DX009 (ip), vehicle: other) was 92 % of control. For the same molecule, the T/C (endpoint: mean survival time, dose: 0.5 mg/kg/injection, schedule: Q01DX009 (ip), vehicle: other) was 92 % of control, the T/C (endpoint: mean survival time, dose: 1.0 mg/kg/injection, schedule: Q01DX009 (ip), vehicle: other) was 97 % of control and the T/C (endpoint: mean survival time, dose: 2.0 mg/kg/injection, schedule: Q01DX009 (ip), vehicle: other) was 90 % of control.
